Results reported in ChEMBL document CHEMBL3885881, “DrugMatrix”.

Organism: Rattus norvegicus
Assay: DrugMatrix - Regimen: Daily Repeat
Assay type: toxicity, organism-based, Sprague-Dawley
Design: regimen Daily Repeat, gender Male, age 6-8 weeks
Details: in vivo, po, route oral GAVAGE, vehicle 100 % WATER; for ABSOLUTE BASOPHIL / ABSOLUTE EOSINOPHIL / ABSOLUTE LYMPHOCYTE / ABSOLUTE MONOCYTE / ABSOLUTE SEGMENTED NEUTROPHIL / BASOPHIL / EOSINOPHIL / ERYTHROCYTE COUNT / HEMATOCRIT / HEMOGLOBIN / LEUKOCYTE COUNT / LYMPHOCYTE / MEAN CORPUSCULAR HEMOGLOBIN / MEAN CORPUSCULAR HEMOGLOBIN CONCENTRATION / MEAN CORPUSCULAR VOLUME / MONOCYTE / NEUTROPHIL / NUCLEATED RED BLOOD CELLS / PLATELET COUNT: tissue Blood; for ALANINE AMINOTRANSFERASE / ALKALINE PHOSPHATASE / ASPARTATE AMINOTRANSFERASE / BLOOD UREA NITROGEN / CARBON DIOXIDE / CHLORIDE / CHOLESTEROL / CREATINE PHOSPHOKINASE / CREATININE / GLUCOSE / LACTATE DEHYDROGENASE / LIPASE / PHOSPHORUS / POTASSIUM / SODIUM / TOTAL BILIRUBIN / TOTAL PROTEIN / URIC ACID: tissue Plasma
[1] = 0 mg/kg, 72 h, dose level Control, time 3 day
[2] = 0 mg/kg, 120 h, dose level Control, time 5 day
[3] = 46 mg/kg, 72 h, dose level Low, time 3 day
[4] = 46 mg/kg, 120 h, dose level Low, time 5 day

O=C1NC(=O)C(c2ccccc2)(c2ccccc2)N1 [PHENYTOIN]
ABSOLUTE BASOPHIL [1]: 0 CELLS/uL | ABSOLUTE EOSINOPHIL [1]: 123.17 CELLS/uL | ABSOLUTE LYMPHOCYTE [1]: 12677.83 CELLS/uL | ABSOLUTE MONOCYTE [1]: 66.17 CELLS/uL | ABSOLUTE SEGMENTED NEUTROPHIL [1]: 1149.5 CELLS/uL | BASOPHIL [1]: 0% | EOSINOPHIL [1]: 0.83% | ERYTHROCYTE COUNT [1]: 5.26 x10E6/uL | HEMATOCRIT [1]: 33.07% | HEMOGLOBIN [1]: 13.43 G/DL | LEUKOCYTE COUNT [1]: 14.02 x10E3/uL | LYMPHOCYTE [1]: 90.17% | MEAN CORPUSCULAR HEMOGLOBIN [1]: 25.62 pg | MEAN CORPUSCULAR HEMOGLOBIN CONCENTRATION [1]: 40.65 G/DL | MEAN CORPUSCULAR VOLUME [1]: 63 fL | MONOCYTE [1]: 0.5% | NEUTROPHIL [1]: 8.5% | NUCLEATED RED BLOOD CELLS [1]: 0.17 /100WBC | PLATELET COUNT [1]: 1142.83 x10E3/uL | ALANINE AMINOTRANSFERASE [1]: 45.17 u/L | ALKALINE PHOSPHATASE [1]: 340.17 u/L | ASPARTATE AMINOTRANSFERASE [1]: 77.33 u/L | BLOOD UREA NITROGEN [1]: 14.67 mg/dL | CARBON DIOXIDE [1]: 28.67 mmol/L | CHLORIDE [1]: 101.17 MEQ/L | CHOLESTEROL [1]: 77.67 mg/dL | CREATINE PHOSPHOKINASE [1]: 263.67 u/L | CREATININE [1]: 0.15 mg/dL | GLUCOSE [1]: 169.33 mg/dL | LACTATE DEHYDROGENASE [1]: 230 u/L | LIPASE [1]: 9.67 u/L | PHOSPHORUS [1]: 11.8 mg/dL | POTASSIUM [1]: 5.91 MEQ/L | SODIUM [1]: 142.88 MEQ/L | TOTAL BILIRUBIN [1]: 0.22 mg/dL | TOTAL PROTEIN [1]: 5.7 G/DL | URIC ACID [1]: 1.35 mg/dL | ABSOLUTE BASOPHIL [2]: 0 CELLS/uL | ABSOLUTE EOSINOPHIL [2]: 125 CELLS/uL | ABSOLUTE LYMPHOCYTE [2]: 13809 CELLS/uL | ABSOLUTE MONOCYTE [2]: 351 CELLS/uL | ABSOLUTE SEGMENTED NEUTROPHIL [2]: 1581.67 CELLS/uL | BASOPHIL [2]: 0% | EOSINOPHIL [2]: 0.67% | ERYTHROCYTE COUNT [2]: 5.53 x10E6/uL | HEMATOCRIT [2]: 34.83% | HEMOGLOBIN [2]: 13.9 G/DL | LEUKOCYTE COUNT [2]: 15.87 x10E3/uL | LYMPHOCYTE [2]: 87.5% | MEAN CORPUSCULAR HEMOGLOBIN [2]: 25.25 pg | MEAN CORPUSCULAR HEMOGLOBIN CONCENTRATION [2]: 40.08 G/DL | MEAN CORPUSCULAR VOLUME [2]: 63.05 fL | MONOCYTE [2]: 2.17% | NEUTROPHIL [2]: 9.67% | NUCLEATED RED BLOOD CELLS [2]: 0 /100WBC | PLATELET COUNT [2]: 1044 x10E3/uL | ALANINE AMINOTRANSFERASE [2]: 50.67 u/L | ALKALINE PHOSPHATASE [2]: 395 u/L | ASPARTATE AMINOTRANSFERASE [2]: 86 u/L | BLOOD UREA NITROGEN [2]: 15.33 mg/dL | CARBON DIOXIDE [2]: 29.33 mmol/L | CHLORIDE [2]: 101.5 MEQ/L | CHOLESTEROL [2]: 71.33 mg/dL | CREATINE PHOSPHOKINASE [2]: 323.17 u/L | CREATININE [2]: 0.18 mg/dL | GLUCOSE [2]: 145.67 mg/dL | LACTATE DEHYDROGENASE [2]: 389.5 u/L | LIPASE [2]: 9.83 u/L | PHOSPHORUS [2]: 11.35 mg/dL | POTASSIUM [2]: 6.39 MEQ/L | SODIUM [2]: 142.77 MEQ/L | TOTAL BILIRUBIN [2]: 0.18 mg/dL | TOTAL PROTEIN [2]: 6.1 G/DL | URIC ACID [2]: 1.52 mg/dL | ABSOLUTE BASOPHIL [3]: 0 CELLS/uL | ABSOLUTE EOSINOPHIL [3]: 0 CELLS/uL | ABSOLUTE LYMPHOCYTE [3]: 15884.67 CELLS/uL | ABSOLUTE MONOCYTE [3]: 0 CELLS/uL | ABSOLUTE SEGMENTED NEUTROPHIL [3]: 1248.67 CELLS/uL | BASOPHIL [3]: 0% | EOSINOPHIL [3]: 0% | ERYTHROCYTE COUNT [3]: 5.58 x10E6/uL | HEMATOCRIT [3]: 35.6% | HEMOGLOBIN [3]: 14.27 G/DL | LEUKOCYTE COUNT [3]: 17.13 x10E3/uL | LYMPHOCYTE [3]: 93% | MEAN CORPUSCULAR HEMOGLOBIN [3]: 25.63 pg | MEAN CORPUSCULAR HEMOGLOBIN CONCENTRATION [3]: 40.1 G/DL | MEAN CORPUSCULAR VOLUME [3]: 63.9 fL | MONOCYTE [3]: 0% | NEUTROPHIL [3]: 7% | NUCLEATED RED BLOOD CELLS [3]: 0 /100WBC | PLATELET COUNT [3]: 1336.33 x10E3/uL | ALANINE AMINOTRANSFERASE [3]: 48.67 u/L | ALKALINE PHOSPHATASE [3]: 344.67 u/L | ASPARTATE AMINOTRANSFERASE [3]: 69.33 u/L | BLOOD UREA NITROGEN [3]: 13.67 mg/dL | CARBON DIOXIDE [3]: 33.67 mmol/L | CHLORIDE [3]: 99.67 MEQ/L | CHOLESTEROL [3]: 68.67 mg/dL | CREATINE PHOSPHOKINASE [3]: 151.67 u/L | CREATININE [3]: 0.12 mg/dL | GLUCOSE [3]: 146 mg/dL | LACTATE DEHYDROGENASE [3]: 81.33 u/L | LIPASE [3]: 10 u/L | PHOSPHORUS [3]: 11.37 mg/dL | POTASSIUM [3]: 6.96 MEQ/L | SODIUM [3]: 142.8 MEQ/L | TOTAL BILIRUBIN [3]: 0.2 mg/dL | TOTAL PROTEIN [3]: 5.7 G/DL | URIC ACID [3]: 1.53 mg/dL | ABSOLUTE BASOPHIL [4]: 0 CELLS/uL | ABSOLUTE EOSINOPHIL [4]: 40.67 CELLS/uL | ABSOLUTE LYMPHOCYTE [4]: 11032 CELLS/uL | ABSOLUTE MONOCYTE [4]: 233.67 CELLS/uL | ABSOLUTE SEGMENTED NEUTROPHIL [4]: 793.67 CELLS/uL | BASOPHIL [4]: 0% | EOSINOPHIL [4]: 0.33% | ERYTHROCYTE COUNT [4]: 5.47 x10E6/uL | HEMATOCRIT [4]: 33.93% | HEMOGLOBIN [4]: 13.63 G/DL | LEUKOCYTE COUNT [4]: 12.1 x10E3/uL | LYMPHOCYTE [4]: 91.33% | MEAN CORPUSCULAR HEMOGLOBIN [4]: 24.93 pg | MEAN CORPUSCULAR HEMOGLOBIN CONCENTRATION [4]: 40.17 G/DL | MEAN CORPUSCULAR VOLUME [4]: 62 fL | MONOCYTE [4]: 2% | NEUTROPHIL [4]: 6.33% | NUCLEATED RED BLOOD CELLS [4]: 0 /100WBC | PLATELET COUNT [4]: 1416.33 x10E3/uL | ALANINE AMINOTRANSFERASE [4]: 54 u/L | ALKALINE PHOSPHATASE [4]: 319.67 u/L | ASPARTATE AMINOTRANSFERASE [4]: 264.33 u/L | BLOOD UREA NITROGEN [4]: 17 mg/dL | CARBON DIOXIDE [4]: 24.67 mmol/L | CHLORIDE [4]: 104.33 MEQ/L | CHOLESTEROL [4]: 61.67 mg/dL | CREATINE PHOSPHOKINASE [4]: 2442.67 u/L | CREATININE [4]: 0.27 mg/dL | GLUCOSE [4]: 152 mg/dL | LACTATE DEHYDROGENASE [4]: 827.67 u/L | LIPASE [4]: 10.67 u/L | PHOSPHORUS [4]: 13.43 mg/dL | POTASSIUM [4]: 7.35 MEQ/L | SODIUM [4]: 144.9 MEQ/L | TOTAL BILIRUBIN [4]: 0.2 mg/dL | TOTAL PROTEIN [4]: 6 G/DL | URIC ACID [4]: 3.3 mg/dL
